Results reported in a melting point compilation (Tetko et al.; mined from patent text by program, amines drawn as free bases though some values may be those of a salt).

Compared with `COC(=O)c1ccc(/C=C(\C)c2ccc3c(c2)OC(C)(C)O3)cc1`, `CN(C)CC1CCc2cc(NC(=O)c3ccc(Br)cc3)ccc2C1` (stereo unspecified) is higher in melting point: 72 to 74 °C for the first, 141 to 143 °C for the second.

`CCc1nc2cccc(C(=O)OC)c2n1Cc1ccc(-c2ccccc2-c2nc(=O)s[nH]2)cc1` and `CCCCn1nc(C)c(C(N)=O)c1Cc1ccc(-c2ccccc2-c2nnn[nH]2)cc1` cannot be ordered by melting point: 203 to 205 °C for the first, 204 to 208 °C for the second.

First: CN1CCC23c4c5ccc(O)c4OC2C(OC2OC(C(=O)O)C(O)C(O)C2O)C=CC3C1C5 (stereo unspecified)
Second: COc1c(-c2cc3c(s2)C(O)CCC3)ccc2c(=O)c(C(=O)O)cn(C3CC3)c12 (stereo unspecified)
The melting point of the first is higher: 240 to 243 °C for the first, 238 to 240 °C for the second.

`CCCc1[nH]c2cc(C(=O)O)ccc2c1C(=O)COC` and `CC(C)(C)CC(=O)Nc1ccc2ncn3c(=O)c(C(=O)O)cnc3c2c1` cannot be ordered by melting point: over 250 °C for the first, 304 to 306 °C for the second.

Compared with `Nc1ccc2c(ccn2O)n1`, `Cn1nc2c(cc1=O)CCSc1ccccc1-2` is lower in melting point: 227 to 228 °C for the first, 139 to 140 °C for the second.

First: COCCOc1ccc2c(C(c3cccc(NC(=O)OCc4ccccc4)c3C)C(C)[N+](=O)[O-])c[nH]c2c1 (stereo unspecified)
Second: CCOC(=O)CN1C(=O)C(NC(=O)OCc2ccccc2)N=C(c2ccccc2)c2ccccc21 (stereo unspecified)
The melting point of the first is higher: 140 °C for the first, 65 to 66 °C for the second.

First: O=C(O)c1ccccc1Sc1cccc(OCc2ccc3cc(Cl)ccc3n2)c1
Second: COc1ccc(C2=C(c3ccccc3)CCCc3cc(O)ccc32)cc1
The melting point of the first is lower: 177 to 179 °C for the first, 232 to 233 °C for the second.

First: COc1ccc(O)c2c(C)c(C)[nH]c12
Second: COc1ccc(Cl)cc1C(=O)Cl
The melting point of the first is higher: 164 °C for the first, 59 to 60 °C for the second.

First: Cc1nc(-c2ccc(-c3ccccc3S(=O)(=O)Nc3onc(C)c3C)cc2)oc1C
Second: Cn1nccc1-c1ccc(-c2cnc3[nH]cc(C(=O)C(C)(C)C)c3n2)cc1
The melting point of the first is lower: 96 to 102 °C for the first, 257 to 258 °C for the second.

First: CC(C)c1cccc(C(C)C)c1NC(=O)Nc1nnn(CCCCCCCCCCCCO)n1
Second: CCCCCCCCCCCc1nnc(CO)n1-c1ccccc1C(=O)c1ccccc1
The melting point of the first is lower: 80 to 90 °C for the first, 111 to 112 °C for the second.

Compared with `CCCc1nn(-c2ccc(C(F)(F)F)cn2)cc1CCCOc1c(CC(=O)O)cccc1OCC`, `NC(=O)CNC(=O)c1cccc(-c2cccc3cc(CCc4cccc(C(F)(F)F)c4)sc23)c1` is higher in melting point: 133 to 134 °C for the first, 153 to 154 °C for the second.

First: c1ccc(Oc2ccc(N3CCNCC3)nn2)cc1
Second: O=C(NCCCC1CC1)c1ccc(N2CCC(N3C(=O)C(F)(F)c4ccccc43)CC2)nn1
The melting point of the first is higher: 96 to 97 °C for the first, 51 to 53 °C for the second.

Compared with `CCC(C)OC(=O)SN(C(=O)N1CC2(C(=O)OC)CCc3ccccc3C2=N1)c1ccc(C(F)(F)F)cc1` (stereo unspecified), `COC(=O)[C@H](Cc1ccc(NC(=O)c2c(C)cccc2Cl)cc1)NC(=O)OC(C)(C)C` is higher in melting point: 125 to 126 °C for the first, 154 to 157 °C for the second.

First: O=C1CC=C2N1CCN1C(=O)C[C@H]3CCCC[C@]231 (relative stereo)
Second: O=CN1CCN(c2c(F)c(F)c3c(=O)c(C(=O)O)cn(C4CC4)c3c2F)CC1
The melting point of the first is lower: 105 to 125 °C for the first, 290 to 297 °C for the second.

First: Nc1cnc(-c2ccc(F)cc2)n(CC(=O)N[C@@H](Cc2ccccc2)C(=O)C(F)(F)C(=O)NCc2ccccc2)c1=O
Second: O=C(COc1ccccc1)NC(Cc1ccccc1)C(=O)NNc1ccccc1 (stereo unspecified)
The melting point of the first is lower: 90 to 91 °C for the first, 172 to 175 °C for the second.

First: Cc1ccc(S(=O)(=O)N(C)c2ccc(Cl)cc2S(C)=O)cc1 (stereo unspecified)
Second: CCOC(=O)c1nc(-c2ccc(F)cc2)c(-c2ccc(S(C)(=O)=O)cc2)s1
The melting point of the first is lower: 142 to 144 °C for the first, 173 to 174 °C for the second.

First: Cc1c(CN2CCc3c(c4ccccc4n3C)C2=O)ncn1S(=O)(=O)N(C)C
Second: CN(C)CC(O)Cn1c2ccccc2c2c3c(c4c5ccccc5n(C)c4c21)C(=O)N(C)C3=O (stereo unspecified)
The melting point of the first is lower: 194 to 196 °C for the first, 198 to 203 °C for the second.

First: COc1ccc(C2(O)c3c(C)c(NC(=O)CC(C)(C)C)c(C)c(C)c3OC2(C)C)cc1 (stereo unspecified)
Second: COc1ccc2c(n1)c(CCNC(C)=O)c1n2Cc2ccccc2-1
The melting point of the first is higher: 98 to 99 °C for the first, 96 to 97 °C for the second.

First: CC(C)[Si](C#Cc1ccc2c(c1)c1cccc3c1c2c1cccc2c4cc(C#C[Si](C(C)C)(C(C)C)C(C)C)ccc4c3c21)(C(C)C)C(C)C
Second: CC(c1oc2ccccc2c(=O)c1-c1cccc(F)c1)n1nc(-c2csc3ccccc23)c2c(N)ncnc21 (stereo unspecified)
The melting point of the first is higher: over 300 °C for the first, 226 to 229 °C for the second.

First: COc1ccc2c(c1)-c1nc(-c3ccccc3C)c(N)n1CC2
Second: COc1cc(OC)cc(-c2ncoc2-c2ccc(N)cc2)c1
The melting point of the first is higher: 160 °C for the first, 142 to 146 °C for the second.

First: CN1C(=O)C(Cc2ccccc2)Oc2ccc([N+](=O)[O-])cc21 (stereo unspecified)
Second: CN1c2ccc(F)cc2C(c2ccccc2)=NCC1CCl (stereo unspecified)
The melting point of the first is lower: 166 to 169 °C for the first, 173 to 188 °C for the second.

First: O=C(O)c1ccc(F)s1
Second: O=C(O)C(Cl)Cc1ccccc1[N+](=O)[O-] (stereo unspecified)
The melting point of the first is higher: 140 to 142 °C for the first, 108 to 109 °C for the second.

First: CN1C(=O)Cn2cnnc2-c2cc(Cl)ccc21
Second: CCOc1ccc(-c2c(O)c3ccc(Cl)cc3[nH]c2=O)cc1
The melting point of the first is lower: 272 to 274 °C for the first, over 320 °C for the second.

First: Cc1ccc(C(F)(F)C(F)(F)c2ccc(Br)cc2)cc1
Second: Nc1c([N+](=O)[O-])cc(Br)c2c1CN(Cc1ccc(C(F)(F)F)cc1)CC2
The melting point of the first is lower: 104 to 106 °C for the first, 119 to 120 °C for the second.

First: COc1cc(CO)cnc1Cl
Second: C=CCc1cc(Cl)cc2nc(Cc3ccc(OC)c(OC4CCCC4)c3)oc12
The melting point of the first is higher: 60 to 63 °C for the first, 43 to 44 °C for the second.

Compared with `CN(C)C1(c2ccccc2)CCC2(CC1)NCCc1c2[nH]c2ccc(-c3ccncc3)cc12` (stereo unspecified), `Oc1ccccc1-c1cc(-c2ccc3c(c2)OCO3)cc(-c2ccsc2)n1` is lower in melting point: 190 to 197 °C for the first, 120 to 121 °C for the second.

Compared with `CCOc1cc2c(cc1OC)C(c1ccc(C(=O)O)cc1)=N[C@@H]1CCOC[C@H]21`, `CCOC(=O)COc1ccc(-c2noc3ccccc23)c(Cl)c1Cl` is lower in melting point: 203 to 205 °C for the first, 88 to 89 °C for the second.

First: Cc1cn(C2CC3OCC3O2)c(=O)[nH]c1=O (stereo unspecified)
Second: Cc1cc(C2=NN(C(=O)NC3CC3)C(C)Cc3cc4c(cc32)OCO4)ccc1[N+](=O)[O-] (stereo unspecified)
The melting point of the first is higher: 188 to 190 °C for the first, 171 to 175 °C for the second.

First: CCOC(OCC)c1cc(NC(c2ccccc2)(c2ccccc2)c2ccccc2)c(F)c(C2CCCO2)n1 (stereo unspecified)
Second: O=C(O)c1cc(OCc2ccccc2)c(C(=O)c2c(OCc3ccccc3)cccc2C(=O)OCc2ccccc2)c(OCc2ccccc2)c1
The melting point of the first is lower: 149 to 150 °C for the first, 151 to 156 °C for the second.

Compared with `CC(C)(C)OCOc1cc(NC(=O)NC(=O)c2ccc(C#N)cc2)ccc1OCC(=O)OC(C)(C)C`, `CC(C)(C)c1ccc(NC(=O)Nc2ccc(Oc3cc(NCc4ccccc4)ncn3)cc2)cc1` is lower in melting point: 161 to 162 °C for the first, 118 to 120 °C for the second.

First: CS(=O)(=O)Nc1ccc(F)c(C(O)CN)c1 (stereo unspecified)
Second: CS(=O)(=O)c1ccc(C(CC2CCCC2)C(=O)Nc2nccs2)cc1[N+](=O)[O-] (stereo unspecified)
The melting point of the first is higher: 176 to 179 °C for the first, 121 to 124 °C for the second.

Compared with `CCCCn1c(=O)c2c(ncn2S(=O)(=O)CCCCl)n(CCCC)c1=O`, `Cn1c(=O)c2c(ncn2CCCCCCO)n(C)c1=O` is higher in melting point: 71 to 73 °C for the first, 80 °C for the second.

First: CCNc1nc(NC2CC2)cc(SC)n1
Second: CCOC(=O)c1sc(N)nc1C(C)(C)C
The melting point of the first is lower: 75 to 76 °C for the first, 99 to 100 °C for the second.

First: CCc1ccc(CCOc2ccc([N+](=O)[O-])cc2)nc1
Second: Cc1nc(C)c(Cl)c(NCc2ccc(Oc3ccc4ncc([N+](=O)[O-])n4n3)cc2)n1
The melting point of the first is lower: 53 to 54 °C for the first, 203 °C for the second.

First: COc1cc(I)c(C(=O)N(c2ccnc3cc4c(cc23)OCO4)C(C)CN(C)C)cc1OC (stereo unspecified)
Second: Cc1cc(OCC(O)CNC(C)C)c2cc(C(=O)N(C)C)[nH]c2c1 (stereo unspecified)
The melting point of the first is lower: 82 to 84 °C for the first, 169 to 171 °C for the second.

Compared with `NC(Cc1cc(O)c2c(c1)C(=O)c1cccc(O)c1C2=O)C(=O)O` (stereo unspecified), `Cc1cccc(C(=O)O)c1NC(=O)/C=C1\SCC(=O)N1C` is lower in melting point: 210 to 212 °C for the first, 187 °C for the second.

Compared with `O=C(O)Cc1ccc(N2CC3=C(CC=CC3)C2=O)cc1`, `Nc1ccccc1S(=O)(=O)N1CC=CC1` is lower in melting point: 198 to 200 °C for the first, 104 to 105 °C for the second.

First: NC(Cc1c2ccccc2cc2ccccc12)(C(=O)O)C1CC(C(=O)O)C1 (stereo unspecified)
Second: COc1ccccc1N1CCN(CCNc2ccccc2C(C)=O)CC1
The melting point of the first is higher: 213 to 216 °C for the first, 92 to 94 °C for the second.

First: Oc1ccc(-c2nnc(-c3ccc(O)cc3)o2)cc1
Second: CC1(C)CC(c2ccc3ccccc3c2)c2ccc(O)cc2O1 (stereo unspecified)
The melting point of the first is higher: 338 °C for the first, 189 to 191 °C for the second.

First: CC(C)(C)c1cc(C=C(C#N)C#N)cc(Cl)c1O
Second: CCCC(=O)Nc1cc(C(F)(F)F)ccc1SCC#N
The melting point of the first is higher: 173 °C for the first, 88.5 to 89.5 °C for the second.

First: CC(C)[C@H]1c2ccc(F)cc2CC[C@]1(O)CCNCc1nc2ccccc2s1
Second: CC(=O)Nc1ccc(-c2c(Cl)c(CCl)nc3sc4c(c23)CCN(Cc2ccccc2)C4)cc1
The melting point of the first is lower: 102 to 103 °C for the first, 203 to 204 °C for the second.

First: CC(C)OC(=O)N1c2cncnc2NC(=S)C1C (racemic)
Second: O=C(C=Cc1ccsc1)Nc1nnn[nH]1
The melting point of the first is lower: 203 to 204 °C for the first, 273 to 274 °C for the second.

First: C=C1c2cnccc2CC(=O)c2ccccc21
Second: O=S(=O)(c1cc(Cl)cc(Cl)c1)n1ccc2c(N3CCN(Cc4ccccc4)CC3)cccc21
The melting point of the first is lower: 98 to 110 °C for the first, 162 to 163 °C for the second.

Compared with `O=C(N[C@H](Cc1cccc(OCC(F)(F)F)c1)[C@@H](O)c1ccc(F)cc1)c1cccc2c1C=CCCC2` (racemic), `COc1ccc(C=O)cc1-c1nsc2ccc(-n3c(=O)cc(C(F)(F)F)n(C)c3=O)cc12` is lower in melting point: 172 to 173 °C for the first, 118 to 120 °C for the second.

Compared with `FCc1cccc(C#CCCc2cnc3cc(F)c(F)cc3n2)n1`, `Cn1nc(Oc2ccc([N+](=O)[O-])c([N+](=O)[O-])c2)c(Cl)c1C(F)(F)F` is higher in melting point: 135 to 138 °C for the first, 139 to 140 °C for the second.

First: CS(=O)(=O)C1CCCCC1Br (stereo unspecified)
Second: COc1ccc(C2=NN(C3CCCC3)C(=O)[C@H]3CC=CC[C@@H]23)cc1Cl (relative stereo)
The melting point of the first is lower: 45 to 48 °C for the first, 201 to 202 °C for the second.

Compared with `O=C1CCCc2ccc([N+](=O)[O-])cc2N1`, `O=C1Nc2ccc(F)c(F)c2[C@@](C#CC2CC2)(C(F)(F)F)O[C@H]1C1CC1` (relative stereo) is lower in melting point: 224 to 226 °C for the first, 222 °C for the second.

First: CSC(=NC#N)N1CCc2nc(NC(=N)N)sc2C1
Second: ICCC12CC3CC(CC(C3)C1)C2
The melting point of the first is higher: 224 to 227 °C for the first, 93 to 94 °C for the second.
